From PubChem BioAssay AID1963972 (Molecular Pharmacology Branch, DTP, NCI, 2024)

Test system: 945468-187-T-J2-PDC spheroids viability
Assay: Anticancer human tumor 945468-187-T-J2-PDC patient-derived rectal carcinoma cell line growth inhibition [PI3K]
Conditions: spheroids with HUVEC and MSC; for IC50: curve of first compound; for viability, T/C: stronger effect = lower value
How it was run: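 Stroma-containing spheroids: tumor line, pooled-donor HUVEC, hMSC. Treatments: targeted agents with PI3K inhibitors. Dosing: clinically relevant, half-log spacing, 10 microM ceiling without known Cmax. Read-out: cell viability.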

[1] = second compound 0.0316 µM, first compound 0.0316 µM
[2] = second compound 0.0316 µM, first compound 0.1 µM
[3] = second compound 0.0316 µM, first compound 0.316 µM
[4] = second compound 0.0316 µM, first compound 1 µM
[5] = second compound 0.0316 µM, first compound 3.16 µM
[6] = second compound 0.0316 µM, first compound 10 µM
[7] = second compound 0.1 µM, first compound 0.0316 µM
[8] = second compound 0.1 µM, first compound 0.1 µM
[9] = second compound 0.1 µM, first compound 0.316 µM
[10] = second compound 0.1 µM, first compound 1 µM
[11] = second compound 0.1 µM, first compound 3.16 µM
[12] = second compound 0.1 µM, first compound 10 µM
[13] = second compound 0.316 µM, first compound 0.0316 µM
[14] = second compound 0.316 µM, first compound 0.1 µM
[15] = second compound 0.316 µM, first compound 0.316 µM
[16] = second compound 0.316 µM, first compound 1 µM
[17] = second compound 0.316 µM, first compound 3.16 µM
[18] = second compound 0.316 µM, first compound 10 µM
[19] = second compound 1 µM, first compound 0.0316 µM
[20] = second compound 1 µM, first compound 0.1 µM
[21] = second compound 1 µM, first compound 0.316 µM
[22] = second compound 1 µM, first compound 1 µM
[23] = second compound 1 µM, first compound 3.16 µM
[24] = second compound 1 µM, first compound 10 µM
[25] = second compound 3.16 µM, first compound 0.0316 µM
[26] = second compound 3.16 µM, first compound 0.1 µM
[27] = second compound 3.16 µM, first compound 0.316 µM
[28] = second compound 3.16 µM, first compound 1 µM
[29] = second compound 3.16 µM, first compound 3.16 µM
[30] = second compound 3.16 µM, first compound 10 µM
[31] = second compound 10 µM, first compound 0.0316 µM
[32] = second compound 10 µM, first compound 0.1 µM
[33] = second compound 10 µM, first compound 0.316 µM
[34] = second compound 10 µM, first compound 1 µM
[35] = second compound 10 µM, first compound 3.16 µM
[36] = second compound 10 µM, first compound 10 µM
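Further: spheroids exposed to compounds for seven days before reading.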

C[C@@H](NC(=O)c1ncnc(N)c1Cl)c1ncc(C(=O)Nc2cc(C(F)(F)F)c(Cl)cn2)s1 + Cc1nc(NC(=O)N2CCCC2C(N)=O)sc1-c1ccnc(C(C)(C)C(F)(F)F)c1
IC50 (second compound 0.0316 µM): > 10 µM
IC50 (second compound 0.1 µM): > 10 µM
IC50 (second compound 0.316 µM): > 10 µM
IC50 (second compound 1 µM): > 10 µM
IC50 (second compound 3.16 µM): > 10 µM
IC50 (second compound 10 µM): > 10 µM
viability, T/C [1]: 94.3%
viability, T/C [2]: 92.5%
viability, T/C [3]: 77.2%
viability, T/C [4]: 91.5%
viability, T/C [5]: 96.2%
viability, T/C [6]: 69.2%
viability, T/C [7]: 100%
viability, T/C [8]: 80.3%
viability, T/C [9]: 95.8%
viability, T/C [10]: 77.4%
viability, T/C [11]: 105%
viability, T/C [12]: 93.7%
viability, T/C [13]: 99.8%
viability, T/C [14]: 82.9%
viability, T/C [15]: 123%
viability, T/C [16]: 93.4%
viability, T/C [17]: 87%
viability, T/C [18]: 85%
viability, T/C [19]: 91.4%
viability, T/C [20]: 102%
viability, T/C [21]: 99%
viability, T/C [22]: 102%
viability, T/C [23]: 81.1%
viability, T/C [24]: 86.1%
viability, T/C [25]: 90.8%
viability, T/C [26]: 91.5%
viability, T/C [27]: 92.4%
viability, T/C [28]: 89%
viability, T/C [29]: 89.5%
viability, T/C [30]: 83%
viability, T/C [31]: 76.3%
viability, T/C [32]: 70.1%
viability, T/C [33]: 85.7%
viability, T/C [34]: 68.7%
viability, T/C [35]: 72.2%
viability, T/C [36]: 80.2%

Cn1nccc1Nc1nccc(-c2ccn(C(CO)c3ccc(Cl)c(F)c3)c(=O)c2)n1 (stereo not drawn) + Cc1nc(NC(=O)N2CCCC2C(N)=O)sc1-c1ccnc(C(C)(C)C(F)(F)F)c1
IC50 (second compound 0.0316 µM): > 10 µM
IC50 (second compound 0.1 µM): > 10 µM
IC50 (second compound 0.316 µM): > 10 µM
IC50 (second compound 1 µM): > 10 µM
IC50 (second compound 3.16 µM): > 10 µM
IC50 (second compound 10 µM): > 10 µM
viability, T/C [1]: 107%
viability, T/C [2]: 116%
viability, T/C [3]: 88.5%
viability, T/C [4]: 79.3%
viability, T/C [5]: 103%
viability, T/C [6]: 72.8%
viability, T/C [7]: 112%
viability, T/C [8]: 110%
viability, T/C [9]: 108%
viability, T/C [10]: 105%
viability, T/C [11]: 87.4%
viability, T/C [12]: 82.1%
viability, T/C [13]: 129%
viability, T/C [14]: 107%
viability, T/C [15]: 98.1%
viability, T/C [16]: 89.2%
viability, T/C [17]: 105%
viability, T/C [18]: 80.7%
viability, T/C [19]: 118%
viability, T/C [20]: 108%
viability, T/C [21]: 104%
viability, T/C [22]: 119%
viability, T/C [23]: 85.2%
viability, T/C [24]: 74.8%
viability, T/C [25]: 85.9%
viability, T/C [26]: 119%
viability, T/C [27]: 85.6%
viability, T/C [28]: 82.8%
viability, T/C [29]: 79.7%
viability, T/C [30]: 88.5%
viability, T/C [31]: 76.8%
viability, T/C [32]: 98.3%
viability, T/C [33]: 71.1%
viability, T/C [34]: 86.9%
viability, T/C [35]: 88%
viability, T/C [36]: 72.4%

C#Cc1c(F)ccc2cc(O)cc(-c3ncc4c(N5CC6CCC(C5)N6)nc(OCC56CCCN5CC(F)C6)nc4c3F)c12 (stereo not drawn) + COc1c(OCCCN2CCOCC2)ccc2c3n(c(=NC(=O)c4cnc(N)nc4)nc12)CCN3
IC50 (second compound 0.00316 µM): > 10 µM
IC50 (second compound 0.01 µM): > 10 µM
IC50 (second compound 0.0316 µM): > 10 µM
IC50 (second compound 0.1 µM): > 10 µM
IC50 (second compound 0.316 µM): < 0.0316 µM
IC50 (second compound 1 µM): < 0.0316 µM
viability, T/C (second compound 0.00316 µM, first compound 0.0316 µM): 124%
viability, T/C (second compound 0.00316 µM, first compound 0.1 µM): 91.1%
viability, T/C (second compound 0.00316 µM, first compound 0.316 µM): 121%
viability, T/C (second compound 0.00316 µM, first compound 1 µM): 102%
viability, T/C (second compound 0.00316 µM, first compound 3.16 µM): 121%
viability, T/C (second compound 0.00316 µM, first compound 10 µM): 94.1%
viability, T/C (second compound 0.01 µM, first compound 0.0316 µM): 107%
viability, T/C (second compound 0.01 µM, first compound 0.1 µM): 98.8%
viability, T/C (second compound 0.01 µM, first compound 0.316 µM): 104%
viability, T/C (second compound 0.01 µM, first compound 1 µM): 88.1%
viability, T/C (second compound 0.01 µM, first compound 3.16 µM): 81.1%
viability, T/C (second compound 0.01 µM, first compound 10 µM): 97%
viability, T/C [1]: 79%
viability, T/C [2]: 114%
viability, T/C [3]: 94.2%
viability, T/C [4]: 110%
viability, T/C [5]: 99%
viability, T/C [6]: 104%
viability, T/C [7]: 70.2%
viability, T/C [8]: 95%
viability, T/C [9]: 79.2%
viability, T/C [10]: 81.4%
viability, T/C [11]: 83.4%
viability, T/C [12]: 59.8%
viability, T/C [13]: 44.6%
viability, T/C [14]: 41.3%
viability, T/C [15]: 45%
viability, T/C [16]: 41.8%
viability, T/C [17]: 33.1%
viability, T/C [18]: 26.9%
viability, T/C [19]: 18.7%
viability, T/C [20]: 17.3%
viability, T/C [21]: 18.1%
viability, T/C [22]: 19.2%
viability, T/C [23]: 19.1%
viability, T/C [24]: 14.4%

Cn1nccc1Nc1nccc(-c2ccn(C(CO)c3ccc(Cl)c(F)c3)c(=O)c2)n1 (stereo not drawn) + CC(Nc1ncnc2nc[nH]c12)c1cc2cccc(Cl)c2c(=O)n1-c1ccccc1
IC50 (second compound 0.0316 µM): > 10 µM
IC50 (second compound 0.1 µM): > 10 µM
IC50 (second compound 0.316 µM): > 10 µM
IC50 (second compound 1 µM): > 10 µM
IC50 (second compound 3.16 µM): > 10 µM
IC50 (second compound 10 µM): > 10 µM
viability, T/C [1]: 107%
viability, T/C [2]: 91.4%
viability, T/C [3]: 92%
viability, T/C [4]: 115%
viability, T/C [5]: 101%
viability, T/C [6]: 78.5%
viability, T/C [7]: 76.1%
viability, T/C [8]: 86.5%
viability, T/C [9]: 102%
viability, T/C [10]: 120%
viability, T/C [11]: 101%
viability, T/C [12]: 72.7%
viability, T/C [13]: 95.2%
viability, T/C [14]: 85.6%
viability, T/C [15]: 83.1%
viability, T/C [16]: 98.7%
viability, T/C [17]: 84.2%
viability, T/C [18]: 71.1%
viability, T/C [19]: 99.3%
viability, T/C [20]: 100%
viability, T/C [21]: 89.4%
viability, T/C [22]: 103%
viability, T/C [23]: 96.2%
viability, T/C [24]: 75.7%
viability, T/C [25]: 88.2%
viability, T/C [26]: 80.8%
viability, T/C [27]: 83.6%
viability, T/C [28]: 125%
viability, T/C [29]: 140%
viability, T/C [30]: 68.4%
viability, T/C [31]: 135%
viability, T/C [32]: 115%
viability, T/C [33]: 109%
viability, T/C [34]: 110%
viability, T/C [35]: 91.9%
viability, T/C [36]: 70.5%
